We go through 25 molecules from US20230148214A1, “INDAZOLES AND AZAINDAZOLES AS LRRK2 INHIBITORS” (ESCAPE Bio, Inc., priority 2020, published 2023).

A word on the IC50: it is the concentration that inhibits the measured activity by half.

One test addresses T1, LRRK2 WT (Homo sapiens, UniProt Q5S007).
T1 construct: purchased Life Technologies PR8604B
Briefly: LRRK2 Kinase Activity Assay (LanthaScreen TR-FRET), wild type. Format: biochemical. The conditions noted are these: recombinant wild type LRRK2, 25 μM ATP, 400 nM LRRKtide, 60 min; class symbols. Summed up: (§1)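 IC50 fitted to the compound-dependent loss of TR-FRET signal. Each kinase form, wild type or G2019S, phosphorylated the fluorescein-tagged ERM-derived LRRKtide in the presence of ATP and compound dilutions over 60 min at room temperature; quench contained 10 mM EDTA and 2 nM anti-pERM antibody (final).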
For orientation: In TR-FRET formats the signal depends on donor and acceptor labels being close together.

A further test concerns the target T2, LRRK2 G2019S (Homo sapiens, UniProt Q5S007, G2019S).
T2 construct: purchased Life Technologies PV4881
As to the kind of experiment: LRRK2 Kinase Activity Assay (LanthaScreen TR-FRET), G2019S. The format is biochemical. The conditions noted are these: recombinant G2019S-LRRK2, 25 μM ATP, 400 nM LRRKtide, 60 min; class symbols. The gist of the method:
as §1

T1 sequence (Q5S007 whole entry): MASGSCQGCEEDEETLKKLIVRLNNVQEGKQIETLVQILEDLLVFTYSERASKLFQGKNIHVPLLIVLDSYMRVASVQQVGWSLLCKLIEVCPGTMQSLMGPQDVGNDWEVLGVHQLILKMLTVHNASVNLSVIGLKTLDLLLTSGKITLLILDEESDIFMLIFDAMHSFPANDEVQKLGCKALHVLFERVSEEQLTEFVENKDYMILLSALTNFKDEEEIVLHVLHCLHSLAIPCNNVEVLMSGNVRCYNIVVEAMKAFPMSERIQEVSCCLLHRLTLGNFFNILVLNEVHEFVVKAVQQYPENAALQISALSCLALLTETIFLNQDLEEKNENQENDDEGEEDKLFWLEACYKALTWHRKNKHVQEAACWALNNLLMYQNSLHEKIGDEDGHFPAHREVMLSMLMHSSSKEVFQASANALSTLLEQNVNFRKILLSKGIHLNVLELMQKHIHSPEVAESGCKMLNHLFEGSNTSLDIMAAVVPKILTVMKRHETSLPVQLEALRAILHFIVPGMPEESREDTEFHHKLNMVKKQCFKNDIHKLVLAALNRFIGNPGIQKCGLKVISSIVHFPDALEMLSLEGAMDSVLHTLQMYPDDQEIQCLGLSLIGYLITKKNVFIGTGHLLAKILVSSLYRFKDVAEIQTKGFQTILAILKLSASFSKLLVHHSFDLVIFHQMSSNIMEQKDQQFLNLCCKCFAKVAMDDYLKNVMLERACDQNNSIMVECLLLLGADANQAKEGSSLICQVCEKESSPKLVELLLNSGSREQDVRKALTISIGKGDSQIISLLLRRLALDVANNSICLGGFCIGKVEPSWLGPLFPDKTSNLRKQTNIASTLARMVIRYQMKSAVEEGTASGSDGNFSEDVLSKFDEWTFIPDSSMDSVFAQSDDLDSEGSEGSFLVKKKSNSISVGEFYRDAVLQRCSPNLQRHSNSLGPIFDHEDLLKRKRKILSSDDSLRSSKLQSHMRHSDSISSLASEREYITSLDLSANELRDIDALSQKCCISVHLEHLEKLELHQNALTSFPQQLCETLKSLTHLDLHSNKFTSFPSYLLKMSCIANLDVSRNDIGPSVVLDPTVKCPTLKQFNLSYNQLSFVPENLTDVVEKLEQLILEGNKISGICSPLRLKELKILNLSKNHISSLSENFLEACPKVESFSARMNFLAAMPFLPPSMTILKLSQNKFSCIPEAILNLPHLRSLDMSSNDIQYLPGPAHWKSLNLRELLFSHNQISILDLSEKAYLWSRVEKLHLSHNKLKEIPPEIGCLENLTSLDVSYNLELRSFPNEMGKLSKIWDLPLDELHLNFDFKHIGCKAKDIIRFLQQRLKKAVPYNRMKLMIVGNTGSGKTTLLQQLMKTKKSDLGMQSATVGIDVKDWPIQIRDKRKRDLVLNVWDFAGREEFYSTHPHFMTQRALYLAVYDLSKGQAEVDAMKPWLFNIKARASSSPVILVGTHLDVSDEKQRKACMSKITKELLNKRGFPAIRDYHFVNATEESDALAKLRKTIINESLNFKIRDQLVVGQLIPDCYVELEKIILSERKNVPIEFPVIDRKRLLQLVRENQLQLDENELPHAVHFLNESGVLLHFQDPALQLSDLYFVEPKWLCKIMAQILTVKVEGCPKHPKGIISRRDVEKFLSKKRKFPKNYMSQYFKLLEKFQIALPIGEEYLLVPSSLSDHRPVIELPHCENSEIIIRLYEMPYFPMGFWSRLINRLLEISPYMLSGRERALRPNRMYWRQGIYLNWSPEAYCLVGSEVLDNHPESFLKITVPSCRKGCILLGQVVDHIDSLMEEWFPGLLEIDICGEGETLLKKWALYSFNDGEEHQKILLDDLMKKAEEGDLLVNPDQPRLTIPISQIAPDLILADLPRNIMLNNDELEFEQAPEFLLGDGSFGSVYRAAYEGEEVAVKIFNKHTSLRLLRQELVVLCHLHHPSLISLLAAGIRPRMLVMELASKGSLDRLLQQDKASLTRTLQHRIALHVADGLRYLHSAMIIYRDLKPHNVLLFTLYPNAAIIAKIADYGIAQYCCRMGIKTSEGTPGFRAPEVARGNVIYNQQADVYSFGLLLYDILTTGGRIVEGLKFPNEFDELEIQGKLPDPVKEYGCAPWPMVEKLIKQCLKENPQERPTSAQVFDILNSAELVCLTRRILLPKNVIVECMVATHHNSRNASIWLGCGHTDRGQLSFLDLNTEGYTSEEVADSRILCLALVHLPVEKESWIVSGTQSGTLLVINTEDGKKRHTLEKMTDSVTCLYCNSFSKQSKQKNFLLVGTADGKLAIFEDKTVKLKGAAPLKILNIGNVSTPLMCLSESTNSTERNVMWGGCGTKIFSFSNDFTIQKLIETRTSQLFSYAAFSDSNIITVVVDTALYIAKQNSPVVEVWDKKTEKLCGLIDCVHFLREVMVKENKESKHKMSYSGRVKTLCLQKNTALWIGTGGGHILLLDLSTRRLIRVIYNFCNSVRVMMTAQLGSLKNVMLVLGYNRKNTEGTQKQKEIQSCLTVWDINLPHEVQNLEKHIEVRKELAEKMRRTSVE
T2 sequence (Q5S007 whole entry G2019S): as the sequence (Q5S007 whole entry) above, with G2019S counted along it

For the molecule `N#Cc1ccc2c(c1)C(F)(F)C[C@@H]2Nc1ccc2[nH]nc(-c3cnco3)c2c1` (single isomer, unassigned) [Example 138, enantiomer 2, 3,3-Difluoro-1-((3-(oxazol-5-yl)-1H-indazol-5-yl)amino)-2,3-dihydro-1H-indene-5-carbonitrile], the IC50 at LRRK2 WT was 100 to 1000 nM; on LRRK2 G2019S, under 100 nM.

Turning to `N#Cc1ccc2c(c1)CCC[C@@H]2Nc1ccc2[nH]nc(CC3CC3)c2c1` (single isomer, unassigned) [Example 139, enantiomer 1, 5-((3-(Cyclopropylmethyl)-1H-indazol-5-yl)amino)-5,6,7,8-tetrahydronaphthalene-2-carbonitrile], the IC50 on LRRK2 WT and on LRRK2 G2019S was 1000 to 10000 nM in each case.

`N#Cc1ccc2c(c1)CCC[C@@H]2Nc1ccc2[nH]nc(CC3CC3)c2c1` (single isomer, unassigned) [Example 139, enantiomer 2, 5-((3-(Cyclopropylmethyl)-1H-indazol-5-yl)amino)-5,6,7,8-tetrahydronaphthalene-2-carbonitrile]: the IC50 at LRRK2 WT is 1000 to 10000 nM; on LRRK2 G2019S, under 100 nM.

As to `N#Cc1ccc2c(c1)C1(CC1)C[C@@H]2Nc1ccc2[nH]nc(-c3cnco3)c2c1` (single isomer, unassigned) [Example 140, enantiomer 1, 3′-((3-(Oxazol-5-yl)-1H-indazol-5-yl)amino)-2′,3′-dihydrospiro[cyclopropane-1,1′-indene]-6′-carbonitrile], the IC50 at LRRK2 WT was 100 to 1000 nM; on LRRK2 G2019S, under 100 nM.

As to `N#Cc1ccc2c(c1)C1(CC1)C[C@@H]2Nc1ccc2[nH]nc(-c3cnco3)c2c1` (single isomer, unassigned) [Example 140, enantiomer 2, 3′-((3-(Oxazol-5-yl)-1H-indazol-5-yl)amino)-2′,3′-dihydrospiro[cyclopropane-1,1′-indene]-6′-carbonitrile], the IC50 on LRRK2 WT is 100 to 1000 nM; at LRRK2 G2019S, under 100 nM.

Regarding `N#Cc1cnc2c(c1)CCC[C@@H]2Oc1ccc2[nH]nc(-c3cnn(C(F)F)c3)c2c1` (single isomer, unassigned) [Example 141, enantiomer 1, 8-((3-(1-(Difluoromethyl)-1H-pyrazol-4-yl)-1H-indazol-5-yl)oxy)-5,6,7,8-tetrahydroquinoline-3-carbonitrile], the IC50 on LRRK2 WT and at LRRK2 G2019S was under 100 nM throughout.

For the molecule `N#Cc1cnc2c(c1)CCC[C@@H]2Nc1ccc2[nH]nc(-c3cncs3)c2c1` (single isomer, unassigned) [Example 142, enantiomer 1, 8-((3-(Thiazol-5-yl)-1H-indazol-5-yl)amino)-5,6,7,8-tetrahydroquinoline-3-carbonitrile], the IC50 on LRRK2 WT was 100 to 1000 nM; at LRRK2 G2019S it was under 100 nM.

Take `N#Cc1ccc2c(c1Cl)CCC[C@@H]2Nc1ccc2[nH]nc(-c3cnco3)c2c1` (single isomer, unassigned) [Example 143, enantiomer 1, 1-Chloro-5-((3-(oxazol-5-yl)-1H-indazol-5-yl)amino)-5,6,7,8-tetrahydronaphthalene-2-carbonitrile]: the IC50 on LRRK2 WT was 100 to 1000 nM; on LRRK2 G2019S, under 100 nM.

Take `N#Cc1cnc2c(c1Cl)CCC[C@@H]2Nc1ccc2[nH]nc(-c3cnco3)c2c1` (single isomer, unassigned) [Example 144, enantiomer 1, 4-Chloro-8-((3-(oxazol-5-yl)-1H-indazol-5-yl)amino)-5,6,7,8-tetrahydroquinoline-3-carbonitrile]: the IC50 at LRRK2 WT and at LRRK2 G2019S was 100 to 1000 nM in each case.

As to `N#Cc1cnc2c(c1Cl)CCC[C@@H]2Nc1ccc2[nH]nc(-c3cnco3)c2c1` (single isomer, unassigned) [Example 144, enantiomer 2, 4-Chloro-8-((3-(oxazol-5-yl)-1H-indazol-5-yl)amino)-5,6,7,8-tetrahydroquinoline-3-carbonitrile], the IC50 on LRRK2 WT and at LRRK2 G2019S was under 100 nM throughout.

On to `N#Cc1cnc2c(c1C(F)(F)F)CCC[C@@H]2Nc1ccc2[nH]nc(-c3cnco3)c2c1` (single isomer, unassigned) [Example 145, enantiomer 1, 8-((3-(Oxazol-5-yl)-1H-indazol-5-yl)amino)-4-(trifluoromethyl)-5,6,7,8-tetrahydroquinoline-3-carbonitrile], for which the results for the IC50 on LRRK2 WT and at LRRK2 G2019S were 100 to 1000 nM and under 100 nM, respectively.

On to `COc1c(C#N)cnc2c1CCC[C@@H]2Nc1ccc2[nH]nc(-c3cnco3)c2c1` (single isomer, unassigned) [Example 146, enantiomer 1, 4-Methoxy-8-((3-(oxazol-5-yl)-1H-indazol-5-yl)amino)-5,6,7,8-tetrahydroquinoline-3-carbonitrile], for which the values for the half-inhibitory concentration (IC50) at LRRK2 WT and on LRRK2 G2019S were 100 to 1000 nM and under 100 nM, respectively.

For the molecule `N#Cc1cnc2c(c1C(F)F)CCC[C@@H]2Nc1ccc2[nH]nc(-c3cnco3)c2c1` (single isomer, unassigned) [Example 147, enantiomer 1, 4-(Difluoromethyl)-8-((3-(oxazol-5-yl)-1H-indazol-5-yl)amino)-5,6,7,8-tetrahydroquinoline-3-carbonitrile], the half-maximal inhibitory concentration (IC50) on LRRK2 WT and on LRRK2 G2019S was under 100 nM in each case.

On to `N#Cc1cnc2c(c1C(F)F)CCC[C@@H]2Nc1ccc2[nH]nc(-c3cnco3)c2c1` (single isomer, unassigned) [Example 147, enantiomer 2, 4-(Difluoromethyl)-8-((3-(oxazol-5-yl)-1H-indazol-5-yl)amino)-5,6,7,8-tetrahydroquinoline-3-carbonitrile], for which the IC50 at LRRK2 WT was 100 to 1000 nM; at LRRK2 G2019S it was under 100 nM.

On to `N#Cc1cnc2c(c1)CCC[C@@H]2Nc1ccc2[nH]nc(-c3ccc[nH]3)c2c1` (single isomer, unassigned) [Example 148, enantiomer 1, 8-((3-(1H-Pyrrol-2-yl)-1H-indazol-5-yl)amino)-5,6,7,8-tetrahydroquinoline-3-carbonitrile], for which the IC50 on LRRK2 WT and at LRRK2 G2019S was under 100 nM throughout.

Take `N#Cc1cnc2c(c1)CCC[C@@H]2Nc1ccc2[nH]nc(-c3ccc[nH]3)c2c1` (single isomer, unassigned) [Example 148, enantiomer 2, 8-((3-(1H-Pyrrol-2-yl)-1H-indazol-5-yl)amino)-5,6,7,8-tetrahydroquinoline-3-carbonitrile]: the IC50 on LRRK2 WT and at LRRK2 G2019S was 100 to 1000 nM in each case.

`Cn1ccc(-c2n[nH]c3ccc(N[C@H]4CCCc5cc(C#N)cnc54)cc23)c1` (single isomer, unassigned) [Example 149, enantiomer 1, 8-((3-(1-Methyl-1H-pyrrol-3-yl)-1H-indazol-5-yl)amino)-5,6,7,8-tetrahydroquinoline-3-carbonitrile]: the IC50 on LRRK2 WT and on LRRK2 G2019S was 100 to 1000 nM in each case.

Take `Cn1ccc(-c2n[nH]c3ccc(N[C@H]4CCCc5cc(C#N)cnc54)cc23)c1` (single isomer, unassigned) [Example 149, enantiomer 2, 8-((3-(1-Methyl-1H-pyrrol-3-yl)-1H-indazol-5-yl)amino)-5,6,7,8-tetrahydroquinoline-3-carbonitrile]: the IC50 on LRRK2 WT and on LRRK2 G2019S was under 100 nM in each case.

For `Cc1c(C#N)cnc2c1CCC[C@@H]2Nc1ccc2[nH]nc(-c3cnco3)c2c1` (single isomer, unassigned) [Example 150, enantiomer 1, 4-Methyl-8-((3-(oxazol-5-yl)-1H-indazol-5-yl)amino)-5,6,7,8-tetrahydroquinoline-3-carbonitrile], the IC50 at LRRK2 WT and on LRRK2 G2019S was 100 to 1000 nM each time.

`Cc1c(C#N)cnc2c1CCC[C@@H]2Nc1ccc2[nH]nc(-c3cnco3)c2c1` (single isomer, unassigned) [Example 150, enantiomer 2, 4-Methyl-8-((3-(oxazol-5-yl)-1H-indazol-5-yl)amino)-5,6,7,8-tetrahydroquinoline-3-carbonitrile]: the IC50 at LRRK2 WT and on LRRK2 G2019S was under 100 nM throughout.

On to `N#Cc1ccc2c(c1F)CC(F)(F)[C@@H]2Nc1ccc2[nH]nc(-c3cnco3)c2c1` (single isomer, unassigned) [Example 151, enantiomer 1, 2,2,4-Trifluoro-1-((3-(oxazol-5-yl)-1H-indazol-5-yl)amino)-2,3-dihydro-1H-indene-5-carbonitrile], for which the IC50 on LRRK2 WT is 100 to 1000 nM; on LRRK2 G2019S it was under 100 nM.

Regarding `N#Cc1ccc2c(c1)CCCC2Oc1ccc2[nH]nc(C(F)(F)F)c2c1` (single isomer, unassigned) [Example 152, enantiomer 1, 5-((3-(Trifluoromethyl)-1H-indazol-5-yl)oxy)-5,6,7,8-tetrahydronaphthalene-2-carbonitrile], the IC50 at LRRK2 WT and on LRRK2 G2019S was 1000 to 10000 nM in each case.

For the molecule `N#Cc1ccc2c(c1)CCCC2Nc1ccc2[nH]nc(C(F)(F)F)c2c1` (single isomer, unassigned) [Example 153, enantiomer 1, 5-((3-(Trifluoromethyl)-1H-indazol-5-yl)amino)-5,6,7,8-tetrahydronaphthalene-2-carbonitrile], the IC50 at LRRK2 WT is 1000 to 10000 nM; on LRRK2 G2019S, under 100 nM.

In the case of `COc1c(C#N)cnc2c1CC[C@@H]2Nc1ccc2[nH]nc(-c3cnco3)c2c1` (single isomer, unassigned) [Example 154, enantiomer 2, 4-Methoxy-7-((3-(oxazol-5-yl)-1H-indazol-5-yl)amino)-6,7-dihydro-5H-cyclopenta[b]pyridine-3-carbonitrile], the IC50 at LRRK2 WT and at LRRK2 G2019S was under 100 nM in each case.

Regarding `Cc1ncc(-c2n[nH]c3ccc(N[C@@H]4c5ccc(C#N)cc5CC4(F)F)cc23)o1` (single isomer, unassigned) [Example 155, enantiomer 1, 2,2-Difluoro-1-((3-(2-methyloxazol-5-yl)-1H-indazol-5-yl)amino)-2,3-dihydro-1H-indene-5-carbonitrile], the IC50 at LRRK2 WT and at LRRK2 G2019S was under 100 nM in each case.
